Results: US20130266663A1, “SOX9 INHIBITORS” (priority 2010, published 2013)
Each block holds one compound with its values, some of them ahead of it.

Legend:
Format in all cases: cell-based, rat
SOX9 target genes = test: Q-PCR of SOX9 target gene expression in aged primary astrocyte cultures; design: reduction of XT-1 expression / reduction of HAPLN1 expression / reduction of aggrecan expression / reduction of Col2a expression / reduction of Col4a expression: concentration or dose not given beside the values
Description: Another approach to modulating the capacity of calmodulin to transport SOX9 into the nucleus is via competitive inhibition of calmodulin binding. To that effect, a novel peptide (SOX-CAL) was generated to specifically block the calmodulin SOX9 binding site. The SOX-CAL peptide sequence, […] (SEQ ID NO.8), corresponds with the calmodulin binding sequence in SOX9. To ensure the peptide's entry into the cell, it was synthesized fused to the protein transduction domain of the HIV-1 Tat protein. […] This analysis was performed in contrast to the control FLAG-TAT peptide.
Antagonists to TRPV4 cation channel were tested to determine their ability to decrease the activity of SOX9 in astrocytes. The effect of TRPV4 antagonists on SOX9 function was evaluated in cultured rat astrocytes transfected with pGL4.1 4×48 Col2a1. The day after transfection, cells were treated for 24 h with 2-APB (100 μM) or ruthenium red (10 μM) before the luciferase assay was performed. The broad-spectrum transient receptor potential (TRP) channel antagonist 2-APB inhibited SOX9 activity by ˜70%, while the vanniloid subfamily-specific TRP antagonist ruthenium red inhibited SOX9 activity by ˜25%. With respect to SOX9 target genes, Q-PCR analysis of aged primary astrocyte cultures was performed to determine the impact of the TRPV4 antagonists on SOX9. Treatment with ruthenium red specifically reduces aggrecan and Col4a expression by 40% and 50%, respectively (FIG. 6B), while 2-APB reduces XT-1, HAPLN1, aggrecan, Col2a, and Col4a by 50%, 70%, 80%, 50%, and 60% respectively (FIG. 6B, C), in rat primary astrocytes after a 48 hour exposure (n=3). […] Based on the role that the TRP channels serve in modulating calcium levels, and therefore calmodulin activity, the effect of the TRP channel blockers on SOX9 activity appears to be indirect.

SOX9 = SOX9 luciferase reporter assay in transfected astrocytes; conditions: for inhibition of SOX9 activity (luciferase assay): 24 h; for luciferase reporter activity (SOX9 activity) / concentration at which the decrease in luciferase reporter activity is optimized / maximal: cultured rat astrocytes; for luciferase reporter activity (SOX9 activity) / reduction of Sox9 activity as indicated by luciferase expression / concentration at which the decrease in luciferase reporter activity is optimized / maximal: 24 h treatment; for luciferase reporter activity (SOX9 activity): various concentrations (FIG. 5); for reduction of Sox9 activity as indicated by luciferase expression: concentration not stated (FIG. 5)
Description: Cultures early after plating bear characteristics of immature and reactive astroctyes associated with acute damage. In this assay, primary astrocytes are transfected with a SOX9 reporter construct that consists of 4 repeats of the SOX9 binding site coupled to the mouse Col2a1 minimal promoter cloned upstream of a luciferase gene in the plasmid pGL4, as previously described in WO 2008/049226. After normalization for transfection efficiency, SOX9 activity can be monitored in transfected astrocytes by luciferase activity. Cells transfected with the SOX9 reporter construct were cultured in the presence and absence of potential inhibitors for 24 hours at which time the cells were lysed and luciferase levels measured. Compounds that reduced the levels of luciferase activity relative to control wells were considered as positive “hits”. In a secondary screen, false positives that cause a reduction in luciferase activity due to effects on cell viability, were eliminated using a cell viability assay (CellTiter-Flour—Promega). Subsequent to secondary screening, the “hits” were evaluated for their affect on SOX9 target gene expression by Q-PCR studies in primary astrocytes.
The utility of calmodulin antagonists (inhibitor) to decrease SOX9 target gene expression was evaluated in cultured rat astrocytes transfected with pGL4.1 4×48 Col2a1 prepared as described in Example 1. This plasmid contains 4-48 bp SOX9-binding sites from the Col2A1 enhancer which promote luciferase reporter gene expression in cells where SOX9 is active i.e. in the nucleus. The day after transfection, cells were treated for 24 h with inhibitor in concentrations as described below and in FIG. 5 before the luciferase assay was performed.
In this example, the potential of compounds that modulate calcium channels to modulate SOX9 activity is tested. The compounds were evaluated in cultured rat astrocytes transfected with pGL4.1 4×48 Col2a1. The day after transfection, cells were treated for 24 h with selected inhibitors before the luciferase assay was performed.
Antagonists to TRPV4 cation channel were tested to determine their ability to decrease the activity of SOX9 in astrocytes. The effect of TRPV4 antagonists on SOX9 function was evaluated in cultured rat astrocytes transfected with pGL4.1 4×48 Col2a1. The day after transfection, cells were treated for 24 h with 2-APB (100 μM) or ruthenium red (10 μM) before the luciferase assay was performed. […] With respect to SOX9 target genes, Q-PCR analysis of aged primary astrocyte cultures was performed to determine the impact of the TRPV4 antagonists on SOX9. […] Collagen IV is a significant scarring extracellular matrix produced by astrocytes and contributing to the inhibitory properties of the glial scar.

Collagen IV = test: Western blotting of astrocyte culture protein extract probed with anti-collagen IV; conditions: Cal-TAT treated vs control cultures
[1] = rat primary astrocytes, 48 hour exposure, n=3
[2] = primary astrocyte cultures, in contrast to control FLAG-TAT peptide (FIG. 7C)

inhibition of SOX9 activity (luciferase assay) (SOX9; 100 μM): ~70%
Compound: NCCOB(c1ccccc1)c1ccccc1 [2-APB]
reduction of Col2a expression (SOX9 target genes; [1]): 50% | reduction of Col4a expression (SOX9 target genes; [1]): 60% | reduction of HAPLN1 expression (SOX9 target genes; [1]): 70% | reduction of XT-1 expression (SOX9 target genes; [1]): 50% | reduction of aggrecan expression (SOX9 target genes; [1]): 80% | luciferase reporter activity (SOX9 activity) (SOX9): significantly reduce luciferase production

Compound: Clc1ccc(C(c2ccc(Cl)cc2)n2cc[n+](CC(OCc3ccc(Cl)cc3Cl)c3ccc(Cl)cc3Cl)c2)cc1 (stereo not drawn) [Calmidazolium, calmidazolium]
reduction of Sox9 activity as indicated by luciferase expression (SOX9): approximately 20%

Compound: OCCN1CCN(CCCN2c3ccccc3Sc3ccc(C(F)(F)F)cc32)CC1 [Fluphenazine, fluphenazine]
luciferase reporter activity (SOX9 activity) (SOX9): dose dependent decrease in reporter activity

Compound: COc1ccc2cc1Oc1ccc(cc1)C[C@H]1c3cc(c(OC)cc3CCN1C)Oc1c(OC)c(OC)cc3c1[C@H](C2)N(C)CC3 [Tetrandine, Tetrandrine]
reduction of Sox9 activity as indicated by luciferase expression (SOX9): approximately 20%

concentration at which the decrease in luciferase reporter activity is optimized / maximal (SOX9): 50 µM
Compound: NCCCCCCNS(=O)(=O)c1cccc2ccccc12 [W5]
luciferase reporter activity (SOX9 activity) (SOX9): does dependent decreases in reporter activity

concentration at which the decrease in luciferase reporter activity is optimized / maximal (SOX9): 50 µM
Compound: NCCCCCCNS(=O)(=O)c1cccc2c(Cl)cccc12 [W7]
luciferase reporter activity (SOX9 activity) (SOX9): does dependent decreases in reporter activity

Compound: CC(COc1ccccc1)N(CCCl)Cc1ccccc1 (stereo not drawn) [phenoxybenzamine]
reduction of Sox9 activity as indicated by luciferase expression (SOX9): up to 80% | luciferase reporter activity (SOX9 activity) (SOX9): dose dependent inhibition of reporter activity at 20 and 50 uM

inhibition of SOX9 activity (luciferase assay) (SOX9; 10 μM): ~25% | reduction of Sox9 activity as indicated by luciferase expression (SOX9): about 25%
Compound: N.N.N.N.N.N.N.N.N.N.N.N.N.N.[Cl-].[Cl-].[Cl-].[Cl-].[Cl-].[Cl-].[O-2].[O-2].[Ru+3].[Ru+3].[Ru+4] [ruthenium red]
reduction of Col4a expression (SOX9 target genes; [1]): 50% | reduction of aggrecan expression (SOX9 target genes; [1]): 40% | luciferase reporter activity (SOX9 activity) (SOX9): significantly reduce luciferase production

Compound: Cal-TAT: SOX-CAL peptide fused to the HIV-1 Tat transduction domain, one N-/C-terminal configuration (KRPMNAFMVWAQAARRKYGRKKRRQRRR)
expression of C4ST (SOX9 target genes; 10 uM peptide, 48 hours): significantly reduced | expression of XT1 (SOX9 target genes; 10 uM peptide, 48 hours): significantly reduced | Collagen 2A expression (SOX9 target genes; [2]): significant reduction | GFAP expression (SOX9 target genes; [2]): significant reduction | XT-1 expression (SOX9 target genes; [2]): significant reduction | aggrecan expression (SOX9 target genes; [2]): significant reduction | brevican expression (SOX9 target genes; [2]): significant reduction | level of type IV collagen (Western blot) (Collagen IV): reduced level of type IV collagen

Compound: RRPMNAFMVWAQAARRK [SOX-CAL peptide]
SOX9 target genes expression (SOX9 target genes; longer treatments (1 week)): even more profound reductions

Compound: TAT-Cal: SOX-CAL peptide fused to the HIV-1 Tat transduction domain, other N-/C-terminal configuration (YGRKKRRQRRRKRPMNAFMVWAQAARRK)
expression of C4ST (SOX9 target genes; 10 uM peptide, 48 hours): significantly reduced | expression of Sox9 (SOX9 target genes; 10 uM peptide, 48 hours): increased | expression of XT1 (SOX9 target genes; 10 uM peptide, 48 hours): significantly reduced
